Laboratory results from the Deep4Chem optical property database.
Blank lines part the entries; values can stand above or below the molecule they belong to.

Test: photoluminescence quantum yield (fraction); solvent given as SMILES

Structure (SMILES): Cc1ccc(O)c(-c2nc(C)c3n2CCCC3)c1
photoluminescence quantum yield (in ClCCl): 0.43

Structure (SMILES): c1cc2ccc3ccc4cc3c2cc1c1ccc2ccc3ccc(cc3c2c1)c1ccc2c(c1)c1cc4ccc1[C@]13OCCO[C@]21OCCO3
photoluminescence quantum yield (in Cc1ccccc1): 0.78

Structure (SMILES): CC(C)Nc1cc2c(cc1F)c(=O)c1cc(F)c(NC(C)C)cc1n2C(C)C
photoluminescence quantum yield (in CCO): 0.32

Structure (SMILES): c1csc(-c2cnc(-c3cccs3)c3nonc23)c1
photoluminescence quantum yield (in C1CCCCC1): 0.54
photoluminescence quantum yield (in CC(C)=O): 0.39
photoluminescence quantum yield (in CCCCCC): 0.54
photoluminescence quantum yield (in CCCO): 0.22
photoluminescence quantum yield (in CCO): 0.19
photoluminescence quantum yield (in CCOCC): 0.52
photoluminescence quantum yield (in CO): 0.15
photoluminescence quantum yield (in Cc1ccccc1): 0.35
photoluminescence quantum yield (in ClC(Cl)(Cl)Cl): 0.43
photoluminescence quantum yield (in ClC(Cl)Cl): 0.35
photoluminescence quantum yield (in O=[N+]([O-])c1ccccc1): 0.2
photoluminescence quantum yield (in OCC(O)CO): 0.03
photoluminescence quantum yield (in OCc1ccccc1): 0.12
photoluminescence quantum yield (in c1ccc2ncccc2c1): 0.25
photoluminescence quantum yield (in c1ccccc1): 0.4
photoluminescence quantum yield (in c1ccncc1): 0.23

Structure (SMILES): C[Si]1(C)O[Si](C)(C)c2cc3cc4c(cc3cc21)C(=O)c1cc2cc3c(cc2cc1C4=O)[Si](C)(C)O[Si]3(C)C
photoluminescence quantum yield (in ClC(Cl)Cl): 0.01

Structure (SMILES): c1ccc2c(c1)-c1ccccc1C21c2ccccc2-c2c1c1c3ccccc3ccc1c1ccccc21
photoluminescence quantum yield (in Cc1ccccc1): 0.61

Structure (SMILES): C=Cc1cc2ccc(OC(=O)c3ccccc3)cc2oc1=O
photoluminescence quantum yield (in CC#N): 0.23

Structure (SMILES): C=CCNc1ccc2ccc3oc4cc(=O)ccc-4nc3c2c1
photoluminescence quantum yield (in CC#N): 0.03
photoluminescence quantum yield (in CCO): 0.04
photoluminescence quantum yield (in ClCCl): 0.06
photoluminescence quantum yield (in O): 0.007

Structure (SMILES): Clc1cnc2nn3ccccc3c2n1
photoluminescence quantum yield (in C1CCOC1): 0.38

Structure (SMILES): COc1ccc2c(c1)C(=O)c1cc(OC)cc(OC)c1-2
photoluminescence quantum yield (in C1CCCCC1): 0.0024
photoluminescence quantum yield (in CC#N): 0.0001
photoluminescence quantum yield (in CCO): 0

Structure (SMILES): CCCCCCOc1cc(/C=C/c2cc(OCCCCCC)c(/C=C/c3cc(OCCCCCC)c(C=C4C(=O)c5ccccc5C4=O)cc3OCCCCCC)cc2OCCCCCC)c(OCCCCCC)cc1C=C1C(=O)c2ccccc2C1=O
photoluminescence quantum yield (in ClCCl): 0.0468

Structure (SMILES): CC(=O)Nc1ccc(S(=O)(=O)O)c(/N=N/c2c(O)c3ccccc3n(C)c2=O)c1
photoluminescence quantum yield (in CS(C)=O): 0.03

Structure (SMILES): Cc1ccc(C)n1-c1ccc(C#N)cc1
photoluminescence quantum yield (in C1CCOC1): 0.025
photoluminescence quantum yield (in CCCCCC): 0.026
photoluminescence quantum yield (in CCCCCl): 0.035
photoluminescence quantum yield (in CCOCC): 0.019
photoluminescence quantum yield (in ClCCl): 0.033

Structure (SMILES): c1ccc(-c2nnc(-c3ccccc3)n2-c2ccc(N3c4ccccc4N(c4ccccc4)c4ccccc43)cc2)cc1
photoluminescence quantum yield (in Cc1ccccc1): 0.03
photoluminescence quantum yield (in c1cc(-n2c3ccccc3c3ccccc32)cc(-n2c3ccccc3c3ccccc32)c1): 0.12

Structure (SMILES): O=c1c2ccccc2oc2cc(N3c4ccccc4C4(c5ccccc5Oc5ccccc54)c4ccccc43)ccc12
photoluminescence quantum yield (in Cc1ccccc1): 0.77

Structure (SMILES): Cc1cc(C)nc(N)n1
photoluminescence quantum yield (in CCO): 0.15
photoluminescence quantum yield (in CO): 0.248
photoluminescence quantum yield (in O): 0.048

Structure (SMILES): Brc1ccc(/C=C/c2cnc3ccccc3n2)cc1
photoluminescence quantum yield (in ClCCl): 0.02

Structure (SMILES): Nc1ccc2c(c1)Cc1ccccc1-2
photoluminescence quantum yield (in C1CCCCC1): 0.74
photoluminescence quantum yield (in C1COCCO1): 0.73
photoluminescence quantum yield (in CC#N): 0.52
photoluminescence quantum yield (in CO): 0.84
photoluminescence quantum yield (in O): 0.2

Structure (SMILES): Cc1cc2cc(C)c3c4ccccc4[nH]c3c2s1
photoluminescence quantum yield (in ClCCl): 0.047

Structure (SMILES): O=C1/C(=C2\Sc3ccc(S(=O)(=O)O)cc3C2=O)Sc2ccc(S(=O)(=O)O)cc21
photoluminescence quantum yield (in CN(C)C=O): 0.25
photoluminescence quantum yield (in CO): 0.008
photoluminescence quantum yield (in CS(C)=O): 0.008
photoluminescence quantum yield (in O): 0.005

Structure (SMILES): COOCc1noc(-c2ccccc2)c1Cl
photoluminescence quantum yield (in C1CCCCC1): 0.006

Structure (SMILES): c1ccc2c(c1)Cc1ccccc1N2c1c2ccccc2c(N2c3ccccc3Cc3ccccc32)c2ccccc12
photoluminescence quantum yield (in Cc1ccccc1): 0.06

Structure (SMILES): O=[N+]([O-])c1ccc(-c2cn3ccc[n+]3[n-]2)cc1
photoluminescence quantum yield (in ClCCl): 0.16

Structure (SMILES): Nc1cccc[nH+]1
photoluminescence quantum yield (in O): 0.64

Structure (SMILES): N#CC1=C(N)n2c(=O)c3ccccc3c(=O)n2C1c1ccccc1 (stereo unspecified)
photoluminescence quantum yield (in CS(C)=O): 0.057

Structure (SMILES): CCCCCCOc1cc(/C=C/c2cc(OCCCCCC)c(/C=C/c3cc(OCCCCCC)c(C=O)cc3OCCCCCC)cc2OCCCCCC)c(OCCCCCC)cc1C=O
photoluminescence quantum yield (in ClCCl): 0.52

Structure (SMILES): C(=C\c1nc2ccccc2s1)/c1ccccc1
photoluminescence quantum yield (in C1CCCCC1): 0.04
photoluminescence quantum yield (in CO): 0.007

Other lines, results leading:

photoluminescence quantum yield (in ClCCl): 0.18
Structure (SMILES): CC(=O)c1cc(=O)n(C)c2cc(-c3ccc(N(C)C)cc3)sc12

photoluminescence quantum yield (in CCOC(C)=O): 0.99
Structure (SMILES): CCn1c(-c2ccc(-c3ccc4c(c3)C(C)(C)c3ccccc3-4)cc2)c(-c2ccc3ccccc3c2)c(-c2ccc3ccccc3c2)c1-c1ccc(-c2ccc3c(c2)C(C)(C)c2ccccc2-3)cc1

photoluminescence quantum yield (in ClC(Cl)Cl): 0.06
Structure (SMILES): c1cc2ccc3ccc(-c4ccc(-c5nnc(-c6ccc(-c7nnc(-c8ccc(-c9ccc%10ccc%11cccc%12ccc9c%10c%11%12)s8)o7)cc6)o5)s4)c4ccc(c1)c2c34

photoluminescence quantum yield (in C1CCOC1): 0.4
photoluminescence quantum yield (in CC#N): 0.02
photoluminescence quantum yield (in CCO): 0.01
photoluminescence quantum yield (in CCOC(C)=O): 0.34
photoluminescence quantum yield (in CN(C)C=O): 0.02
photoluminescence quantum yield (in ClCCl): 0.21
photoluminescence quantum yield (in c1ccccc1): 0.74
Structure (SMILES): O=C(c1ccc(N(c2ccccc2)c2ccccc2)cc1)[C@H]1[C@H](c2ccc(F)cc2)C[C@](O)(c2ccccn2)C[C@]1(O)c1ccccn1

photoluminescence quantum yield (in ClC(Cl)Cl): 0.151
Structure (SMILES): CC(C)(C)NC(=O)c1c([Si](C)(C)C)cc2ccc3cccc4ccc1c2c34

photoluminescence quantum yield (in CCO): 0.93
Structure (SMILES): COc1ccc(C(=O)OCc2ccc3c4cccc5cccc(c6cccc2c63)c54)cc1

photoluminescence quantum yield (in ClCCl): 0.7
Structure (SMILES): CC(C)(C)c1ccc(C#Cc2c(C#Cc3ccc(C(C)(C)C)cc3)c3cccc4c(C#Cc5ccc(C(C)(C)C)cc5)c(C#Cc5ccc(C(C)(C)C)cc5)c5cccc2c5c34)cc1

photoluminescence quantum yield (in CC#N): 0.4
photoluminescence quantum yield (in ClCCCl): 0.28
Structure (SMILES): c1ccc(-c2cc(-c3ccccc3)[o+]c(-c3ccccc3)c2)cc1

photoluminescence quantum yield (in ClCCl): 0.058
Structure (SMILES): C(S/C=C/c1ccc(/C=C/SC=C(c2ccccc2)c2ccccc2)cc1)=C(c1ccccc1)c1ccccc1

photoluminescence quantum yield (in ClC(Cl)Cl): 0.057
Structure (SMILES): CC(C)(C)c1ccc2oc3nc4oc5ccc(N6c7ccccc7Oc7ccccc76)cc5c4cc3c2c1

photoluminescence quantum yield (in ClC(Cl)Cl): 0.61
Structure (SMILES): N#Cc1nc(N(Cc2ccccc2I)Cc2ccccc2I)c(C#N)nc1N(Cc1ccccc1I)Cc1ccccc1I

photoluminescence quantum yield (in ClC(Cl)Cl): 0.03
Structure (SMILES): CC(=C(C#Cc1ccccc1)C#Cc1ccccc1)c1ccc(C(C)=C(C#Cc2ccccc2)C#Cc2ccccc2)cc1

photoluminescence quantum yield (in O): 0.36
Structure (SMILES): COc1ccc(-c2cc(N3CCCCC3)c(C#N)c3c2-c2cccc4cccc-3c24)cc1

photoluminescence quantum yield (in ClCCl): 0.87
Structure (SMILES): F[B-]1(F)n2c(c3c(c2-c2ccccc2)C2C=CC3CC2)C(c2ccccc2)=C2C3=C(C(c4ccccc4)=[N+]21)C1C=CC3CC1 (stereo unspecified)

photoluminescence quantum yield (in ClCCl): 0.93
Structure (SMILES): COc1ccc(-c2ccc3c(c2)[Si](C)(C)c2cc(-c4ccc(OC)cc4)ccc2C=C3)cc1

photoluminescence quantum yield (in ClCCl): 0.42
Structure (SMILES): CN(C)c1ccc(C#Cc2cc(C#Cc3ccc(C(F)(F)F)cc3)c3ccc4c(C#Cc5ccc(C(F)(F)F)cc5)cc(C#Cc5ccc(N(C)C)cc5)c5ccc2c3c54)cc1

photoluminescence quantum yield (in ClC(Cl)Cl): 0.24
Structure (SMILES): CCOC(=O)/C=C/C1=C(c2ccc(C)cc2)C2=Nc3c(-c4ccc(C)cc4)cc(-c4ccc(C)cc4)n3[B-](F)(F)[N+]2=C1c1ccc(C)cc1

photoluminescence quantum yield (in ClCCl): 0.05
Structure (SMILES): COCCOCCOCN1C(=O)c2ccc3c(-c4ccccc4)c4c5ccc6c7c(ccc(c(-c8ccccc8)c4c4ccc(c2c34)C1=O)c75)C(=O)N(COCCOCCOC)C6=O

photoluminescence quantum yield (in C1COCCO1): 0.421
Structure (SMILES): COc1ccc(C2=N/C(=C\c3ccc(C#N)cc3)C(=O)O2)cc1OC

photoluminescence quantum yield (in ClCCl): 0.39
Structure (SMILES): COC(=O)CCC1=CC(C#Cc2ccsc2)=[N+]2C1=Cc1c(CCC(=O)OC)cc(C#Cc3ccsc3)n1[B-]2(F)F

photoluminescence quantum yield (in CCCCCCC): 0.65
Structure (SMILES): c1cc2c3c(cccc3c1)-c1cc3c(ccc4ccccc43)cc1-2

photoluminescence quantum yield (in ClCCl): 0.08
Structure (SMILES): CC1=c2ccccc2=[N+]2C1=Cc1c3ccccc3c(-c3[nH]c4ccccc4c3C)n1[B-]2(F)F

photoluminescence quantum yield (in C1CCOC1): 0.48
photoluminescence quantum yield (in CCCCCC): 0.48
photoluminescence quantum yield (in CO): 0.1
photoluminescence quantum yield (in CS(C)=O): 0.03
photoluminescence quantum yield (in ClC(Cl)Cl): 0.4
photoluminescence quantum yield (in ClCCl): 0.45
Structure (SMILES): CC1=[N+]2C(=c3c4c5ccccc5cc5cccc(c6cc(C)n(c36)[B-]2(F)F)c54)C=C1

photoluminescence quantum yield (in ClCCl): 0.43
Structure (SMILES): CN(C)c1ccc(C#Cc2cc(C#Cc3ccc(C(F)(F)F)cc3)c3ccc4c(C#Cc5ccc(C(F)(F)F)cc5)cc(C#Cc5ccc(C(F)(F)F)cc5)c5ccc2c3c54)cc1

photoluminescence quantum yield (in ClC(Cl)Cl): 0.39
Structure (SMILES): CCCCCCCCCCCCOc1cc2c3c(ccc4c5c(SCCCCCCCCCCCC)cc6c7c(ccc(c1c34)c75)C(=O)N(C1CCCCC1)C6=O)C(=O)N(C1CCCCC1)C2=O

photoluminescence quantum yield (in ClCCl): 0.125
Structure (SMILES): c1ccc(-c2nc(-c3cccc4ccccc34)n3ccccc23)cc1

photoluminescence quantum yield (in C1CCOC1): 0.752
Structure (SMILES): CCCCCOc1cc2oc(=O)c3c4ccc(N(c5ccccc5)c5ccccc5)cc4c4ccc5cccc6c(c1)c2c3c4c56

photoluminescence quantum yield (in ClCCl): 0.136
Structure (SMILES): Oc1ccc2ccccc2c1-c1nc(-c2ccccc2)c2ccccn12

photoluminescence quantum yield (in ClC(Cl)Cl): 0.25
Structure (SMILES): CC(C)c1cccc(C(C)C)c1-n1c(=O)c2cc3nc(-c4ccccc4)c4cc5c(=O)n(-c6c(C(C)C)cccc6C(C)C)c(=O)c6cc7nc(-c8ccccc8)c8cc(c1=O)c2c1c3c4c(c65)c7c81

photoluminescence quantum yield (in ClCCl): 0.12
Structure (SMILES): CC(C)(C)c1ccc2c(c1)c1cc(C(C)(C)C)ccc1n2-c1ccc(C#Cc2ccc3c4ccc(C#Cc5ccc(C=C(C#N)C#N)cc5)cc4n(-c4ccc(C(F)(F)F)cc4)c3c2)cc1

photoluminescence quantum yield (in c1cc(-c2cccc(-n3c4ccccc4c4ccccc43)c2)cc(-n2c3ccccc3c3ccccc32)c1): 0.95
Structure (SMILES): CC(C)c1cc(C(C)C)c(B2c3cc(N4c5ccccc5C(C)(C)c5ccccc54)ccc3N(c3ccccc3)c3ccc(N4c5ccccc5C(C)(C)c5ccccc54)cc32)c(C(C)C)c1

photoluminescence quantum yield (in C1CCCCC1): 1
Structure (SMILES): CCCC1(CCC)c2cc(-c3ccc(C(C)(C)C)cc3)ccc2-c2ccc(-c3ccc4c(c3)C(CCC)(CCC)c3cc(-c5ccc6c(c5)C(CCC)(CCC)c5cc(-c7ccc8c(c7)C(CCC)(CCC)c7cc(-c9ccc(C(C)(C)C)cc9)ccc7-8)ccc5-6)ccc3-4)cc21
